Source: patent publication US12661410B2, “Compounds for targeted degradation of RET” (C4 Therapeutics, Inc., priority 2020, dated 2026)
Where a chain is given by its changes, count along the chain named. Where two headings read alike, the source gives them in different places.

Tests used:
RET(KD: 658-1114 G810R) = molecular target: T1, RET(KD: 658-1114 G810R) (Homo sapiens, UniProt P07949, G810R); experiment: HiBiT-Degradation, RET G810R degradation assay (Nano-Glo HiBiT Lytic), 293T.165 cells; assay type: cell-based; conditions: for Emax / DC50: 6.0 hours; for Emax: % remaining protein, read-out: 293T.165 RET(KD: 658-1114 G810R) 6.0 hours (Emax); for DC50: read-out: 293T.165 RET(KD: 658-1114 G810R) 6.0 hours (DC50)
T1 construct: 658-1114; expressed in transfected cells; host or cells: 293T.165 (293T cells, generated in-house)
T1 sequence (P07949 658-1114 G810R): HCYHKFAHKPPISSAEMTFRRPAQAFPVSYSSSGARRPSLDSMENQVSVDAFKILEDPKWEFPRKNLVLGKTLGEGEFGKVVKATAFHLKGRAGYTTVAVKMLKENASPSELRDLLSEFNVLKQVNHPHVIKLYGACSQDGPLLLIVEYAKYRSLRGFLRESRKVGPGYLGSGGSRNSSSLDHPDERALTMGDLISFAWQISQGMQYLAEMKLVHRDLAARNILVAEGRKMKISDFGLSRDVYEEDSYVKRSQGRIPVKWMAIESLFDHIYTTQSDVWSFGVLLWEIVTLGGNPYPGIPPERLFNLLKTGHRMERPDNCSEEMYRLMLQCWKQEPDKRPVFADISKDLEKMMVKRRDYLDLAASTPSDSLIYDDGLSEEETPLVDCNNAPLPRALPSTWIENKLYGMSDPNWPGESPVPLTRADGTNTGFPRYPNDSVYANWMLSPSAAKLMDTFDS
Outline: (§1)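 Engineered 293T cells carry a HiBiT tag on the RET kinase domain, either wild type (line 293T.144) or G810R (line 293T.165). Compounds act for 6 h across a 10 μM-top, half-log 11-point range. Lytic HiBiT luminescence gives remaining protein, fitted for DC50 and Emax.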

RET (658-1114) = molecular target: T2, RET (658-1114) (Homo sapiens, UniProt P07949); experiment: HiBiT-Degradation, RET wild-type degradation assay (Nano-Glo HiBiT Lytic), 293T.144 cells; assay type: cell-based; conditions: for DC50 / Emax: 6.0 hours; for DC50: read-out: 293T.144 RET (658-1114) 6.0 hours (DC50); for Emax: read-out: 293T.144 RET (658-1114) 6.0 hours (Emax)
T2 construct: 658-1114; expressed in transfected cells; host or cells: 293T.144 (293T cells, generated in-house)
T2 sequence (P07949 658-1114): T1 sequence (P07949 658-1114 G810R) with R153G
Outline: as §1

[1] = half-maximal degradation concentration

Row | Compound | Emax (RET(KD: 658-1114 G810R)) [%] | DC50 (RET(KD: 658-1114 G810R); [1]) [nM] | 293T.165 RET(KD: 658-1114 G810R) 6.0 hours (Emax) (RET(KD: 658-1114 G810R); HiBiT-Degradation) | 293T.165 RET(KD: 658-1114 G810R) 6.0 hours (IP) [nM] (RET(KD: 658-1114 G810R); HiBiT-Degradation) | DC50 (RET(KD: 658-1114 G810R); HiBiT-Degradation) [nM] | 293T.144 RET (658-1114) 6.0 hours (IP) [nM] (RET (658-1114); HiBiT-Degradation) | DC50 (RET (658-1114); HiBiT-Degradation) [nM] | Emax (RET (658-1114); HiBiT-Degradation) [%] | 293T.165 RET(KD: 658-1114 G810R) 6.0 hours (IP) [nM] (RET(KD: 658-1114 G810R)) | 293T.144 RET (658-1114) 6.0 hours (IP) [nM] (RET (658-1114)) | Emax (RET (658-1114); % remaining protein) [%] | DC50 (RET (658-1114); [1]) [nM]
1 | N#Cc1cnn2cc(-c3ccc(N4CCN(C(=O)CC5(O)CCN(c6ccc(NC7CCC(=O)NC7=O)cc6)CC5)CC4)cc3)cc(-c3ccc(N4CCN(C(=O)Cc5ccc(F)cn5)CC4)nc3)c12 (stereo not drawn) [Compound 49, 6-[4-[4-[2-[1-[4-[(2,6-dioxo-3-piperidyl)amino]phenyl]-4-hydroxy-4-piperidyl]acetyl]piperazin-1-yl]phenyl]-4-[6-[4-[2-(5-fluoro-2-pyridyl)acetyl]piperazin-1-yl]-3-pyridyl]pyrazolo[1,5-a]pyridine-3-carbonitrile] | < 50 | < 100 | +++ (<50% = +++) | ++++ (< 50 nM = ++++) | < 100 | ++++ (< 50 nM = ++++) | < 50 | < 30 | – | – | – | –
2 | CCC1(C(=O)NC(C)C)CCN(c2ccc(-c3cc(-c4cnn(C5CCN(C(=O)CC6(O)CCN(c7ccc(NC8CCC(=O)NC8=O)cc7F)CC6)CC5)c4)cn4ncc(C#N)c34)cn2)CC1 (stereo not drawn) [Compound 4, 1-[5-[3-cyano-6-[1-[1-[2-[1-[4-[(2,6-dioxo-3-piperidyl)amino]-2-fluoro-phenyl]-4-hydroxy-4-piperidyl]acetyl]-4-piperidyl]pyrazol-4-yl]pyrazolo[1,5-a]pyridin-4-yl]-2-pyridyl]-4-ethyl-N-isopropyl-piperidine-4-carboxamide] | < 30 | < 50 | ++++ (< 30% = ++++) | ++++ (< 50 nM = ++++) | < 50 | ++++ (< 50 nM = ++++) | < 50 | < 30 | – | – | – | –
3 | CCC1(c2ncccn2)CCN(c2ccc(-c3nc(-c4cnn([C@H]5CC[C@H](N6CCC(c7ccc(N[C@@H]8CCC(=O)NC8=O)cc7F)CC6)CC5)c4)cn4ncc(C#N)c34)cn2)CC1 (single isomer, unassigned) [Compound 140] | < 50 | < 100 | – | – | – | – | – | – | ++++ (<50 nM = ++++) | ++++ (<50 nM = ++++) | < 30 | < 50
4 | CCC1(C(=O)NC(C)C)CCN(c2ccc(-c3nc(-c4ccc(N5CCN(C(=O)CC6(O)CCN(c7ccc8c(N9CCC(=O)NC9=O)nn(C)c8c7)CC6)CC5)cc4)cn4ncc(C#N)c34)cn2)CC1 [Compound 173, 1-(5-(3-cyano-6-(4-(4-(2-(1-(3-(2,4-dioxotetrahydropyrimidin-1(2H)-yl)-1-methyl-1H-indazol-6-yl)-4-hydroxypiperidin-4-yl)acetyl)piperazin-1-yl)phenyl)pyrazolo[1,5-a]pyrazin-4-yl)pyridin-2-yl)-4-ethyl-N-isopropylpiperidine-4-carboxamide] | < 50 | < 100 | – | – | – | – | – | – | +++ (<100 nM = +++) | ++++ (<50 nM = ++++) | < 30 | < 50
5 | CCC1(C(=O)NC2CCC2)CCN(c2ccc(-c3nc(-c4cnn(C5CCN([C@@H]6CCN(c7ccc(N[C@@H]8CCC(=O)NC8=O)cc7F)CC6(F)F)CC5)c4)cn4ncc(C#N)c34)cn2)CC1 (single isomer, unassigned) [Compound 192] | < 30 | < 100 | – | – | – | – | – | – | +++ (<100 nM = +++) | ++++ (<50 nM = ++++) | < 30 | < 50
6 | CCC1(C(=O)NC2CCC2)CCN(c2ccc(-c3nc(-c4cnn([C@H]5C[C@](F)(CN6CCN(c7ccc(N[C@@H]8CCC(=O)NC8=O)cc7F)CC6)C5)c4)cn4ncc(C#N)c34)cn2)CC1 [Compound 187, 1-[5-[3-cyano-6-[1-[3-[[4-[4-[[(3R)-2,6-dioxo-3-piperidyl]amino]-2-fluoro-phenyl]piperazin-1-yl]methyl]-3-fluoro-cyclobutyl]pyrazol-4-yl]pyrazolo[1,5-a]pyrazin-4-yl]-2-pyridyl]-N-cyclobutyl-4-ethyl-piperidine-4-carboxamide] | < 30 | < 50 | – | – | – | – | – | – | ++++ (<50 nM = ++++) | ++++ (<50 nM = ++++) | < 30 | < 50
7 | N#Cc1cnn2cc(-c3cnn([C@H]4CC[C@H](N5CCC(c6ccc(N[C@@H]7CCC(=O)NC7=O)cc6F)CC5)CC4)c3)nc(-c3ccc(N4CCC5(CC4)OCc4cccnc45)nc3)c12 (relative stereo) [Compound 149, 6-[1-[4-[4-[2-fluoro-4-[[rac-(3R)-2,6-dioxo-3-piperidyl]amino]phenyl]-1-piperidyl]cyclohexyl]pyrazol-4-yl]-4-(6-spiro[5H-furo[3,4-b]pyridine-7,4′-piperidine]-1′-yl-3-pyridyl)pyrazolo[1,5-a]pyrazine-3-carbonitrile] | < 30 | < 50 | – | – | – | – | – | – | ++++ (<50 nM = ++++) | ++++ (<50 nM = ++++) | < 30 | < 50
8 | COc1ccc(CC2(OC)CCN(c3ccc(-c4nc(-c5cnn([C@H]6CC[C@@H](N7CCN(c8ccc(NC9CCC(=O)NC9=O)cc8F)CC7)CC6)c5)cn5ncc(C#N)c45)cn3)CC2)cn1 (single isomer, unassigned) [Compound 147, 6-(1-((1s, 4s)-4-(4-(4-((2,6-Dioxopiperidin-3-yl)amino)-2-fluorophenyl)piperazin-1-yl)cyclohexyl)-1H-pyrazol-4-yl)-4-(6-(4-methoxy-4-((6-methoxypyridin-3-yl)methyl)piperidin-1-yl)pyridin-3-yl)pyrazolo[1,5-a]pyrazine-3-carbonitrile] | < 30 | < 100 | – | – | – | – | – | – | ++++ (<50 nM = ++++) | ++++ (<50 nM = ++++) | < 30 | < 50
9 | CCC1(C(=O)NC2CCOCC2)CCN(c2ccc(-c3cc(-c4cnn([C@H]5CC[C@H](CCN6CCC(c7ccc(NC8CCC(=O)NC8=O)cc7F)CC6)CC5)c4)cn4ncc(C#N)c34)cn2)CC1 (stereo partly drawn) [Compound 40, 1-(5-(3-Cyano-6-(1-((trans)-4-(2-(4-(4-((2,6-dioxopiperidin-3-yl)amino)-2-fluorophenyl)piperidin-1-yl)ethyl)cyclohexyl)-1H-pyrazol-4-yl)pyrazolo[1,5-a]pyridin-4-yl)pyridin-2-yl)-4-ethyl-N-(tetrahydro-2H-pyran-4-yl)piperidine-4-carboxamide] | < 30 | < 50 | ++++ (< 30% = ++++) | ++++ (< 50 nM = ++++) | < 50 | ++++ (< 50 nM = ++++) | < 50 | < 30 | – | – | – | –
10 | CCC1(C(=O)Nc2ccc(F)cc2)CCN(c2ccc(-c3nc(-c4cnn(C5CCN(C(=O)CC6(O)CCN(c7ccc(NC8CCC(=O)NC8=O)cc7F)CC6)CC5)c4)cn4ncc(C#N)c34)cn2)CC1 (stereo not drawn) [Compound 101, 1-[5-[3-cyano-6-[1-[1-[2-[1-[4-[(2,6-dioxo-3-piperidyl)amino]-2-fluoro-phenyl]-4-hydroxy-4-piperidyl]acetyl]-4-piperidyl]pyrazol-4-yl]pyrazolo[1,5-a]pyrazin-4-yl]-2-pyridyl]-4-ethyl-N-(4-fluorophenyl)piperidine-4-carboxamide] | < 30 | < 50 | – | – | – | – | – | – | ++++ (<50 nM = ++++) | ++++ (<50 nM = ++++) | < 30 | < 50
